# According to patent US20160106439A1, “PNEUMATIC TOURNIQUET” (BIONUMERIK PHARMACEUTICALS, INC., priority 2013, published 2016):
# Like-named read-outs stand apart in the source and are kept apart here.
# Tests used:
# Human Grx = biological target: T1, Human Grx (Homo sapiens, UniProt P35754); experiment: MS and crystal structure of Grx with Tavocept-derived mesna adducts; type: binding
# T1 construct: 6xHis (TEV-cleavable) (N, cleaved yes); made in house; host or cells: E. coli BL21 (RIPL)
# thioredoxin = biological target: T2, thioredoxin (Homo sapiens, UniProt P10599); experiment: LC-MS of thioredoxin incubations; type: binding; conditions: ion at m/z 1288.3
# T2 construct: purchased Sigma (SigmaAldrich); host or cells: E. coli
# T2 sequence (P10599 whole entry): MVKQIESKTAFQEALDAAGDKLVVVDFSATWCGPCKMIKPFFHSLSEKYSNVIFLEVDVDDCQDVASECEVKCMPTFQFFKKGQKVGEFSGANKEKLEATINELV
# IGF1R = IGF1R (Homo sapiens, UniProt P08069); experiment: IGF1R kinase assay (ADP-glo) after pre-incubation; type: biochemical
# Chain of IGF1R (P08069 31-1367): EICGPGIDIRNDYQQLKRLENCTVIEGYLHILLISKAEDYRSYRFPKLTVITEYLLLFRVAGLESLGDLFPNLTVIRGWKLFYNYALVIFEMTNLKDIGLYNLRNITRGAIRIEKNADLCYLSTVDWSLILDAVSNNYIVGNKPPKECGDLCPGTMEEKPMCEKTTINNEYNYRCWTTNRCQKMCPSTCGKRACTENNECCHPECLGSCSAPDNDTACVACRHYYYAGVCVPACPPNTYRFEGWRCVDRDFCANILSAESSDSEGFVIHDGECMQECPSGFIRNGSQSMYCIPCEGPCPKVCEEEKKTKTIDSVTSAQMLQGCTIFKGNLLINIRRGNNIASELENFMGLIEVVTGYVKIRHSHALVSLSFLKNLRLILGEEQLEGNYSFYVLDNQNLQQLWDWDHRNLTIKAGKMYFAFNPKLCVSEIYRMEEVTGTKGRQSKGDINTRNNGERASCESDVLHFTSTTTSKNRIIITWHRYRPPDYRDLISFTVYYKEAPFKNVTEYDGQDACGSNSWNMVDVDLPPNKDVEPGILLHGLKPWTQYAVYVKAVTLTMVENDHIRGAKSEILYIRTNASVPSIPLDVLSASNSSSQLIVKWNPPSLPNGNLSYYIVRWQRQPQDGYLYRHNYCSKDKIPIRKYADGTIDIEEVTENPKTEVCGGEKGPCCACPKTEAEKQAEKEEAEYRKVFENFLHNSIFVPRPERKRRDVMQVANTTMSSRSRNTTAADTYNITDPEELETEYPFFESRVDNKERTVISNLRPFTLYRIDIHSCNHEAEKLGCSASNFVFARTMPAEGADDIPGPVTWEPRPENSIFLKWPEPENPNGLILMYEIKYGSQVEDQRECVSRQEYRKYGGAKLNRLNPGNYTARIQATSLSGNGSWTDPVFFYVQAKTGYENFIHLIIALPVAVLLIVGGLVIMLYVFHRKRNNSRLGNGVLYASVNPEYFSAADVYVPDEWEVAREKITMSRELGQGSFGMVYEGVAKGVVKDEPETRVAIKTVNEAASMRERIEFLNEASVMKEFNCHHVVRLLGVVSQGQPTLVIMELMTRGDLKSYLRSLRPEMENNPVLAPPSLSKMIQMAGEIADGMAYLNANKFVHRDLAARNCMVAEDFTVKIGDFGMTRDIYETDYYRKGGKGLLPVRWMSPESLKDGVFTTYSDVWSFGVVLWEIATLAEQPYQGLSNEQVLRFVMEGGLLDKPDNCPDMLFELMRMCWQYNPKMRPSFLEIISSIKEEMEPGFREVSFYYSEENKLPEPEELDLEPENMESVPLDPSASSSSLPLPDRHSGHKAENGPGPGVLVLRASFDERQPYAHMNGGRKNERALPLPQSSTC
# Method: Prior to initiating the IGF1R kinase assays, IGF1R was incubated with Tavocept-IGF1R kinase phosphorylated the IGF1Rtide substrate using the ATP cofactor and produced ADP. The assays in half area 96-well microtiter plates were 10 μL in volume and contained IGF1R (4 ng total or 0.4 ng/μL), ATP (100 μM), IGF1Rtide substrate ([…]), and the concentrations of the various test articles as indicated. Additionally, kinase assay buffer was added to achieve a final reaction volume of 10 μL per assay. IGF1R kinase reactions were incubated for 60 minutes at 25° C. in a water bath. Following this 60 minute incubation, reactions were transferred to microplates and the kinase activity was evaluated using the ADP-glo system from Promega (this system monitors ADP produced when IGF1R phosphorylates the IGF1Rtide substrate).
# γ-Glutamyltranspeptidase = γ-Glutamyltranspeptidase (Homo sapiens, UniProt P19440); experiment: γ-glutamyltranspeptidase enzyme activity (summary Table 27); type: biochemical
# Chain of γ-Glutamyltranspeptidase (P19440 whole entry): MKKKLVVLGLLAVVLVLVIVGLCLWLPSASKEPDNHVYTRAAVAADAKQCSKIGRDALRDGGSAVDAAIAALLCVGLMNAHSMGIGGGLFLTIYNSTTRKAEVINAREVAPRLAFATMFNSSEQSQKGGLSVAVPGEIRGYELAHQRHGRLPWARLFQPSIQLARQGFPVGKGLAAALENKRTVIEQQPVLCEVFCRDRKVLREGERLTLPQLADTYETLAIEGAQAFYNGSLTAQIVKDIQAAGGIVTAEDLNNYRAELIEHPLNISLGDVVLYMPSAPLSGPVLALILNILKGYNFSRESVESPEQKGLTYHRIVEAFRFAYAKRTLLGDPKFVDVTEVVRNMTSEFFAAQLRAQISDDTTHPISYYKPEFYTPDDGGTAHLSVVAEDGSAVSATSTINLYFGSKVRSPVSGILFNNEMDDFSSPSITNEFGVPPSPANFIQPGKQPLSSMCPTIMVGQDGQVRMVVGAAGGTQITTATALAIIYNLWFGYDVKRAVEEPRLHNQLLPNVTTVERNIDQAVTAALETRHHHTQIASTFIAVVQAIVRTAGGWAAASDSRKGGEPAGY
# recombinant human ALK = recombinant human ALK (Homo sapiens, UniProt Q9UM73); experiment: biochemical; conditions: for IC50: IC50 on ALK
# Chain of recombinant human ALK (Q9UM73 1058-1620 limits assumed): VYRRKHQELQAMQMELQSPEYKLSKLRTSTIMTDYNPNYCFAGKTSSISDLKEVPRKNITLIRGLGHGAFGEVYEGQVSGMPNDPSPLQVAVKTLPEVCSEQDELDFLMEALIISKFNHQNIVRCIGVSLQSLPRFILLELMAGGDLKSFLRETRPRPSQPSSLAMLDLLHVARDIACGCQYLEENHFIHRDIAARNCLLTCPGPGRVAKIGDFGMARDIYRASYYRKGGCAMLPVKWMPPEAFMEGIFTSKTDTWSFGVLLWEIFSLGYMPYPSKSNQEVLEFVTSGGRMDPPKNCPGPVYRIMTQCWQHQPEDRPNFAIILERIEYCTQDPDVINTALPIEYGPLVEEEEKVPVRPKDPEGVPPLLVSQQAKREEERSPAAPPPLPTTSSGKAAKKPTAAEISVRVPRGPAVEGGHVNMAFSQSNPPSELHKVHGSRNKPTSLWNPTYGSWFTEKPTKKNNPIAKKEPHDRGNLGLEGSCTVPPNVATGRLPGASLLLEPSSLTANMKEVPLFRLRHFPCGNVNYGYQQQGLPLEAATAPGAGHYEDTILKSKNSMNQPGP
# Method: The substrate that was phosphorylated by the kinase, polyglutamate-tyrosine (PolyGT), was purchased from Sigma (P0275, lot 120M5007V).
# All other reagents were purchased from Sigma Aldrich. A Tecan Ultra microplate reader with XFluor software (Tecan, V4.51) and RdrOle software (Tecan, V4.50) were used in this study.
# ALK phosphorylated the polyGT substrate using the ATP cofactor and produced ADP. […] The reactions, in microtubes, were incubated for 60 minutes at 25° C. in a water bath. Following this 60 minute incubation, reactions were transferred to microplates and the kinase activity was evaluated using the ADP-glo system from Promega and monitored, in an endpoint assay, ADP produced when ALK phosphorylated the PolyGT substrate. Various controls were tested and included the assay components indicated in the columns of Table 9 below (where + indicates the component was included and an empty cell indicates it was not included).
# Kinase assays were run in triplicate or quadruplicate in microplates. Following this, the ADP-glo detection system (Promega) was used to determine how much ADP had been produced. For 10 μL volume assays, to each microplate well containing 10 μL of kinase reaction was added ADP-glo reagent (10 μL), plates were spun in a table top centrifuge (1000 rpm (123×g) for 1 minute) to ensure no reagent remained on the well walls, and then agitated for 1 minute to ensure optimal mixing. Plates were incubated at 25° C. on a heat block for 40 minutes. Next, kinase detection reagent (20 μL) was added and, as above, centrifugation and agitation was repeated; plates were allowed to incubate at 25° C.±1° C. on a heat block for 40 minutes. Following the incubation of the kinase detection reagent, plates were read on a Tecan Ultra microplate reader. The Tecan Ultra contained a built-in plate definition file for the whole area 96-well white Corning plates but a plate definition file for the half area 96-well Corning plates was created using the RdrOle component of the Tecan Ultra software. For 25 μL volume assays, the procedure was as described above except that the ADP-glo reagent added to the 25 μL assay was 25 μL in volume and the kinase detection reagent was 50 μL in volume.
# Therefore, each mole of polymer of 20,000 g/mole would contain approximately 28 moles of the glu-glu-glu-glu-tyr “subpolymer.” Typically, a 10 μL assay would contain […] of the polyGT substrate. […] This was a vast excess of possible tyrosine phosphorylation sites, ensuring that the substrate for phosphorylation was not rate limiting (assuming the higher mass range would produce an even larger excess of glu-glu-glu-glu-tyr “subpolymers”).
# Data from ALK assays run on the Tecan Ultra microplate spectrophotometer were collected in Microsoft Excel. Error calculations and graphical representations were performed in Microsoft Office Excel (Microsoft Corporation, Redmond, Wash., USA). Determination of IC25, IC50 and IC75 values were accomplished using Origin Lab software (OriginLab Corporation, Northampton, Mass., USA).
# T1 sequence (P35754 whole entry): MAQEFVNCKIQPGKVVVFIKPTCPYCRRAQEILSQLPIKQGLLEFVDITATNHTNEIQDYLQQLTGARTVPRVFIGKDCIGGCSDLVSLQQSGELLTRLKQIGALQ
compound,measurement,setting,value
"O=S(=O)([O-])CCSSCCS(=O)(=O)[O-].[Na+].[Na+] [Tavocept, disodium 2,2′-dithio-bis-ethane sulfonate]",number of Tavocept-derived mesna adducts on Human Grx,Human Grx; Mass Spectrum,two
same,Grx cysteines with Tavocept-derived mesna adduct,Human Grx; atomic resolution map,Cys7 (Panel A) and Cys82
same,mesna adduct on thioredoxin fragment CMPTFQFFK,thioredoxin,Cys73-mesna adduct
same,loss of IGF1R kinase activity,"IGF1R; 20 mM Tavocept pre-incubated with IGF1R for 24 hours, 100 μM ATP",approximately 33%
same,loss of IGF1R kinase activity,IGF1R; other concentrations and pre-incubation times,≤ 10%
same,Effect on γ-glutamyltranspeptidase enzyme activity,γ-Glutamyltranspeptidase,heteroconjugates can inhibit γ-glutamyl-
same,greater inhibition of ALK than Crizotinib alone,"recombinant human ALK; 100 μM ATP, 5 mM Tavocept + 15 nM Crizotinib",16%
same,greater inhibition of ALK than Crizotinib alone,"recombinant human ALK; 100 μM ATP, 5 mM Tavocept + 30 nM Crizotinib",10%
same,greater inhibition of ALK than Crizotinib alone,"recombinant human ALK; 100 μM ATP, 10 mM Tavocept + 15 nM Crizotinib",29%
same,greater inhibition of ALK than Crizotinib alone,"recombinant human ALK; 100 μM ATP, 10 mM Tavocept + 30 nM Crizotinib",19%
same,greater inhibition of ALK than Crizotinib alone,"recombinant human ALK; 500 μM ATP, 5 mM Tavocept + 30 nM Crizotinib",11%
same,greater inhibition of ALK than Crizotinib alone,"recombinant human ALK; 500 μM ATP, 5 mM Tavocept + 65 nM Crizotinib",6%
same,greater inhibition of ALK than Crizotinib alone,"recombinant human ALK; 500 μM ATP, 10 mM Tavocept + 30 nM Crizotinib",20%
same,greater inhibition of ALK than Crizotinib alone,"recombinant human ALK; 500 μM ATP, 10 mM Tavocept + 65 nM Crizotinib",6%
same,greater inhibition of ALK than Crizotinib alone,"recombinant human ALK; 500 μM ATP, 20 mM Tavocept + 30 nM Crizotinib",30%
same,greater inhibition of ALK than Crizotinib alone,"recombinant human ALK; 500 μM ATP, 20 mM Tavocept + 65 nM Crizotinib",13%
same,IC50,recombinant human ALK; 100 μM ATP,9.16 ± 2.91 mM
same,IC50,recombinant human ALK; 500 μM ATP,20.8 ± 3.49 mM
same,inhibition at 5000 µM,"recombinant human ALK; read-out: greater inhibition of ALK than Crizotinib alone, 100 μM ATP, 5 mM Tavocept + 15 nM Crizotinib",16%
same,inhibition at 5000 µM,"recombinant human ALK; read-out: greater inhibition of ALK than Crizotinib alone, 100 μM ATP, 5 mM Tavocept + 30 nM Crizotinib",10%
same,inhibition at 10000 µM,"recombinant human ALK; read-out: greater inhibition of ALK than Crizotinib alone, 100 μM ATP, 10 mM Tavocept + 15 nM Crizotinib",29%
same,inhibition at 10000 µM,"recombinant human ALK; read-out: greater inhibition of ALK than Crizotinib alone, 100 μM ATP, 10 mM Tavocept + 30 nM Crizotinib",19%
same,inhibition at 5000 µM,"recombinant human ALK; read-out: greater inhibition of ALK than Crizotinib alone, 500 μM ATP, 5 mM Tavocept + 30 nM Crizotinib",11%
same,inhibition at 5000 µM,"recombinant human ALK; read-out: greater inhibition of ALK than Crizotinib alone, 500 μM ATP, 5 mM Tavocept + 65 nM Crizotinib",6%
same,inhibition at 10000 µM,"recombinant human ALK; read-out: greater inhibition of ALK than Crizotinib alone, 500 μM ATP, 10 mM Tavocept + 30 nM Crizotinib",20%
same,inhibition at 10000 µM,"recombinant human ALK; read-out: greater inhibition of ALK than Crizotinib alone, 500 μM ATP, 10 mM Tavocept + 65 nM Crizotinib",6%
same,inhibition at 20000 µM,"recombinant human ALK; read-out: greater inhibition of ALK than Crizotinib alone, 500 μM ATP, 20 mM Tavocept + 30 nM Crizotinib",30%
same,inhibition at 20000 µM,"recombinant human ALK; read-out: greater inhibition of ALK than Crizotinib alone, 500 μM ATP, 20 mM Tavocept + 65 nM Crizotinib",13%
